Experiment [1] addresses T1, Solute carrier family 15 member 1 (Homo sapiens, UniProt P46059).
T1 sequence (P46059 whole entry): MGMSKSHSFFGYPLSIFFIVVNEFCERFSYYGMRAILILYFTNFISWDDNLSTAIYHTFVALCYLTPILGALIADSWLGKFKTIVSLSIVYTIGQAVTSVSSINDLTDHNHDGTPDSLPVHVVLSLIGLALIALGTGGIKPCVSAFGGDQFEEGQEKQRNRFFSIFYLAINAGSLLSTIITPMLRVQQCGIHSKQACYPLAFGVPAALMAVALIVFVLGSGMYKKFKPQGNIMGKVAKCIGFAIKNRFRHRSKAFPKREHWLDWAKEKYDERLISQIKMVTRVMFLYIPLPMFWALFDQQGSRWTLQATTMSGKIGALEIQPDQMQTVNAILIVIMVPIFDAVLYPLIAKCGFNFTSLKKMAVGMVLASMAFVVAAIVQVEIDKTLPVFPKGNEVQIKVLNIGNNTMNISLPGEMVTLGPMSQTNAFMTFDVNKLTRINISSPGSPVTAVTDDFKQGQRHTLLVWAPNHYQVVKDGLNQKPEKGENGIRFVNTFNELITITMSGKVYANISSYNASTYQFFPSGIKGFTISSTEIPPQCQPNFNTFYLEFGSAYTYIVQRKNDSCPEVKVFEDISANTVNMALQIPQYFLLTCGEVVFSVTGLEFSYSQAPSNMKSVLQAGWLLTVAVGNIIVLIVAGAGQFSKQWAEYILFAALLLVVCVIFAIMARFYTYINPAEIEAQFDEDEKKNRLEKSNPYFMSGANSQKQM
Briefly: Binding affinity to human PEPT1 assessed as inhibition of [14C]Gly-Sar uptake in MDCK cells. In kind it is functional, cell-based. The following applies: read-out: IC50.

The target in experiment [2] is T1, Solute carrier family 15 member 1. Briefly: Activation of human PEPT1 expressed in MDCK cells. In kind it is functional, cell-based.

Molecules are shown by their SMILES. pEC50, pIC50: −log10 of the molar value. Where a SMILES comes first, the peptide text is derived from it.

Regarding `NCCCC[C@H](NC(=O)[C@@H](N)CCC(=O)O)C(=O)O` (H-Glu-Lys-OH), the pIC50 (commonly the IC50 on a negative log10 scale, so that one unit is a factor of ten) in experiment [1] was 3.14. Besides, the pEC50 – broadly, the EC50 on a negative log10 scale, so that one unit is a factor of ten – in experiment [2] was 3.51.
The matching figures for `CC(C)C[C@H](NC(=O)CN)C(=O)N[C@@H](Cc1ccccc1)C(=O)O` (H-Gly-Leu-Phe-OH): 3.01 and 3.55.
`C[C@H](N)C(=O)N[C@@H](C)C(=O)O` (H-Ala-Ala-OH): the pIC50 in experiment [1] is 3.60. In addition, in experiment [2], the pEC50 is 4.10.
The like results for `C[C@H](NC(=O)[C@@H](N)Cc1ccccc1)C(N)=O` were, in that order, 2.52 and 3.07.
For the compound `NCC(=O)N[C@@H](CC(=O)O)C(=O)O` (H-Gly-Asp-OH), in experiment [1], the pIC50 was 3.42. Further, the negative logarithm of the EC50 (pEC50) in experiment [2] is 3.26.
Take `NCC(=O)N[C@@H](Cc1ccccc1)C(=O)O` (H-Gly-Phe-OH): the pIC50 in experiment [1] was 3.77. Moreover, in experiment [2], the negative-log EC50 (pEC50) was 3.89.
The matching figures for `N[C@@H](Cc1ccc(O)cc1)C(=O)N[C@@H](Cc1ccc(O)cc1)C(=O)O` (H-Tyr-Tyr-OH): 4.22 and 4.22.
`CC(C)C[C@H](NC(=O)[C@@H]1CCCN1)C(=O)O` (H-Pro-Leu-OH): in experiment [1], the negative logarithm of the IC50 (pIC50) was 3.21. The same compound had a negative logarithm of the EC50 (pEC50) in experiment [2] of 3.60.
For `CC(C)[C@H](NC(=O)[C@@H](N)CC(=O)O)C(=O)O` (H-Asp-Val-OH), the pIC50 in experiment [1] is 3.51. Besides, the pEC50 in experiment [2] was 3.16.
The matching figures for `O=C(O)CC[C@H](NC(=O)[C@@H]1CCCN1)C(=O)O` (H-Pro-Glu-OH): 1.91 and under 2.30.
Consider `NCCCC[C@H](N)C(=O)NCC(=O)O` (H-Lys-Gly-OH), for which the pIC50 in experiment [1] is 3.42. Further, in experiment [2], the pEC50 is 3.49.
The like results for `CC(C)[C@H](N)C(=O)N[C@H](C(=O)N[C@H](C(=O)O)C(C)C)C(C)C` (H-Val-Val-Val-OH) were, in that order, 3.64 and 3.68.

The values are drawn from ChEMBL document CHEMBL1148644, “Human PEPT1 pharmacophore distinguishes between dipeptide transport and binding” (J Med Chem, 2006).
